According to patent US7495002B2, “3-methyl-7-butinyl-xanthines, the preparation thereof and their use as pharmaceutical compositions” (Boehringer Ingelheim International GmbH, priority 2004, dated 2009):

Assays:
DPP-IV = molecular target: T1, DPP-IV (Homo sapiens, UniProt P27487); test: DPP-IV assay with extract of Caco-2 cells as DPP IV source, AFC substrate, fluorescence; assay type: biochemical; details: extract of human colon carcinoma cell line Caco-2; substrate 100 μM; 60 minutes at ambient temperature; read-out: DPP IV inhibition IC50
T1 construct: an extract of the human colon carcinoma cell line Caco-2 is used as the DPP IV source; endogenous in cells; host or cells: Caco-2 (human colon carcinoma), differentiated to induce DPP-IV expression; Nonidet-P40 solubilised extract
T1 sequence (P27487 whole entry): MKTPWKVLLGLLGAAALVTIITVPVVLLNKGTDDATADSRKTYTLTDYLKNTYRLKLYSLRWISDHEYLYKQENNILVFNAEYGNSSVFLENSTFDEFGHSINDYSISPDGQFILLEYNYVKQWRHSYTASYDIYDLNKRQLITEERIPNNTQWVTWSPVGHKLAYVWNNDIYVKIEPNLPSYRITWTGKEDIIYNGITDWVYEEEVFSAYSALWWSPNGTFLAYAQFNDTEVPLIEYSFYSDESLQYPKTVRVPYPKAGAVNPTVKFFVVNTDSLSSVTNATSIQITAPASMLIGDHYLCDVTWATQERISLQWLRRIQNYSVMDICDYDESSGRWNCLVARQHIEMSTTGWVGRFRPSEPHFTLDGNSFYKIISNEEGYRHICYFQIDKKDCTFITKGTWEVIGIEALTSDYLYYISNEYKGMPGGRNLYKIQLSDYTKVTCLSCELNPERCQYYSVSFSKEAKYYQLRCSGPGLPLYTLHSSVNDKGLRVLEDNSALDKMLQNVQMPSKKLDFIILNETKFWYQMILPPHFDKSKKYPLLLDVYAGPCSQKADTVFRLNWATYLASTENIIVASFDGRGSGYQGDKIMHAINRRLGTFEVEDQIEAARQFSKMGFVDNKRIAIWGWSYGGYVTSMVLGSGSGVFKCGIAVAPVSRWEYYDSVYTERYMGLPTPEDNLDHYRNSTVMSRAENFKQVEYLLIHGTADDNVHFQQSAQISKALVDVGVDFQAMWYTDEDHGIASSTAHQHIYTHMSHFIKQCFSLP
Procedure: The differentiation of the cells in order to induce the DPP-IV expression was carried out in accordance with the description by Reiher et al. in an article entitled “Increased expression of intestinal cell line Caco-2”, which appeared in Proc. Natl. Acad. Sci. Vol. 90, pp. 5757-5761 (1993). The cell extract was obtained from cells solubilised in a buffer (10 mM Tris HCl, 0.15 M NaCl, 0.04 t.i.u. aprotinin, 0.5% Nonidet-P40, pH 8.0) by centrifugation at 35,000 g for 30 minutes at 4° C. (to remove cell debris).
The DPP-IV assay was carried out as follows:
50 μl of substrate solution (AFC; AFC is amido-4-trifluoromethylcoumarin), final concentration 100 μM, were placed in black microtitre plates. 20 μl of assay buffer (final concentrations 50 mM Tris HCl pH 7.8, 50 mM NaCl, 1% DMSO) was pipetted in. The reaction was started by the addition of 30 μl of solubilised Caco-2 protein (final concentration 0.14 μg of protein per well). The test substances under investigation were typically added prediluted to 20 μl, while the volume of assay buffer was then reduced accordingly. The reaction was carried out at ambient temperature, the incubation period was 60 minutes. Then the fluorescence was measured in a Victor 1420 Multilabel Counter, with the excitation wavelength at 405 nm and the emission wavelength at 535 nm. Dummy values (corresponding to 0% activity) were obtained in mixtures with no Caco-2 protein (volume replaced by assay buffer), control values (corresponding to 100% activity) were obtained in mixtures without any added substance. The potency of the test substances in question, expressed as IC50 values, were calculated from dosage/activity curves consisting of 11 measured points in each case.

rats = test: Tolerability in rats after oral administration; assay type: in vivo; details: oral administration of 10 mg/kg

| Compound | IC50 (DPP-IV) | toxic side effects (rats) |
| --- | --- | --- |
| CC#CCn1c(N(C)C[C@H](C)N)nc2c1c(=O)n(Cc1ccc3nccnc3c1)c(=O)n2C [2(10), 1-[(quinoxalin-6-yl)methyl]-3-methyl-7-(2-butyn-1-yl)-8-[(S)-(2-amino-propyl)-methylamino]-xanthine] | 3 nM |  |
| CC#CCn1c(N(C)C[C@H](C)N)nc2c1c(=O)n(Cc1ncccc1C#N)c(=O)n2C [2(11), 1-[(3-cyano-pyridin-2-yl)methyl]-3-methyl-7-(2-butyn-1-yl)-8-[(S)-(2-amino-propyl)-methylamino]-xanthine] | 3 nM |  |
| CC#CCn1c(N(C)C[C@H](C)N)nc2c1c(=O)n(Cc1nc(C)c3ccccc3n1)c(=O)n2C [Example 2(4), 1-[(4-methyl-quinazolin-2-yl)methyl]-3-methyl-7-(2-butyn-1-yl)-8-[(S)-(2-amino-propyl)-methylamino]-xanthine] | 2 nM | no toxic side effects could be detected |

The next lines start with results.

| IC50 (DPP-IV) | Compound | toxic side effects (rats) |
| --- | --- | --- |
| 2 nM | CC#CCn1c(N(C)CCN)nc2c1c(=O)n(Cc1nc(C)c3ccccc3n1)c(=O)n2C [1(1), 1-[(4-methyl-quinazolin-2-yl)methyl]-3-methyl-7-(2-butyn-1-yl)-8-[(2-amino-ethyl)-methylamino]-xanthine] |  |
| 3 nM | CC#CCn1c(N(C)CC(C)(C)N)nc2c1c(=O)n(Cc1nc(C)c3ccccc3n1)c(=O)n2C [2(1), 1-[(4-methyl-quinazolin-2-yl)methyl]-3-methyl-7-(2-butyn-1-yl)-8-[(2-amino-2-methyl-propyl)-methylamino]-xanthine] |  |
| 2 nM | CC#CCn1c(N(C)C[C@H](C)N)nc2c1c(=O)n(Cc1ncc3ccccc3c1C#N)c(=O)n2C [2(12), 1-[(4-cyano-isoquinolin-3-yl)methyl]-3-methyl-7-(2-butyn-1-yl)-8-[(S)-(2-amino-propyl)-methylamino]-xanthine] |  |
